In patent US10513493B2, “Cyclopropylamines as LSD1 inhibitors” (Incyte Corporation, priority 2014, dated 2019):

What follows are compounds tested against LSD-1 enzyme (Homo sapiens (Human), UniProt O60341) (assay: LANCE LSD1/KDM1A demethylase assay (LSD1 histone demethylase biochemical assay)). Settings: 1 nM LSD-1 enzyme, 1 hour preincubation at 25° C., 0.4 μM Biotin-labeled Histone H3 peptide substrate.
Protocol: Example A: LSD1 histone demethylase biochemical assay
LANCE LSD1/KDM1A demethylase assay—10 μL of 1 nM LSD-1 enzyme (ENZO BML-SE544-0050) in the assay buffer (50 mM Tris, pH 7.5, 0.01% Tween-20, 25 mM NaCl, 5 mM DTT) were preincubated for 1 hour at 25° C. with 0.8 μL compound/DMSO dotted in black 384 well polystyrene plates. Reactions were started by addition of 10 μL of assay buffer containing 0.4 μM Biotin-labeled Histone H3 peptide substrate: ART-K(Me1)-[…]-GGK(Biotin) SEQ ID NO: 1 (AnaSpec 64355) and incubated for 1 hour at 25° C. Reactions were stopped by addition of 10 μL 1× LANCE Detection Buffer (PerkinElmer CR97-100) supplemented with 1.5 nM Eu-anti-unmodified H3K4 Antibody (PerkinElmer TRF0404), and 225 nM LANCE Ultra Streptavidin (PerkinElmer TRF102) along with 0.9 mM Tranylcypromine-HCl (Millipore 616431). After stopping the reactions plates were incubated for 30 minutes and read on a PHERAstar FS plate reader (BMG Labtech).

Q: With O=C(NC1(C(F)(F)F)CC1)c1ccc(N2CC(CN[C@@H]3C[C@H]3c3ccccc3)C2)cn1 (relative stereo) [Example 15, 5-(3-{[(trans-2-Phenylcyclopropyl)amino]methyl}azetidin-1-yl)-N-[1-(trifluoromethyl)cyclopropyl]pyridine-2-carboxamide] as the compound, how does the IC50 read?
A: < 100 nM

Q: Which IC50 does the source give for COCC1(CN[C@@H]2C[C@H]2c2ccccc2)CCN(c2cccc(C(=O)O)n2)CC1 [Example 24, 6-[4-(methoxymethyl)-4-({[(1R,2S)-2-phenylcyclopropyl]amino}methyl)piperidin-1-yl]pyridine-2-carboxylic acid] here?
A: < 100 nM

Q: Which IC50 does the source give for CNC(=O)c1ccc(N2CCC(C)(CN[C@@H]3C[C@H]3c3ccccc3)CC2)cn1 [Example 29, N-methyl-5-[4-methyl-4-({[(1R,2S)-2-phenylcyclopropyl]amino}methyl)piperidin-1-yl]pyridine-2-carboxamide] here?
A: < 100 nM

Q: For CC1(CN[C@@H]2C[C@H]2c2ccccc2)CCN(c2cccc(C(=O)O)n2)CC1 [Example 26, 6-[4-methyl-4-({[(1R,2S)-2-phenylcyclopropyl]amino}methyl)piperidin-1-yl]pyridine-2-carboxylic acid], which IC50 is on record?
A: < 100 nM

Q: How did the IC50 turn out when CC(C)NC(=O)c1ccc(N2CC(CN[C@@H]3C[C@H]3c3ccccc3)C2)c(F)c1 (relative stereo) [Example 10, 3-Fluoro-N-isopropyl-4-(3-{[(trans-2-phenylcyclopropyl)amino]methyl}azetidin-1-yl)benzamide] was run?
A: < 100 nM

Q: How did the IC50 turn out when COc1cc(N2CC(CN[C@@H]3C[C@H]3c3ccccc3)C2)ccc1C(=O)NC(C)C (relative stereo) [Example 13, N-Isopropyl-2-methoxy-4-(3-{[(trans-2-phenylcyclopropyl)amino]methyl}azetidin-1-yl)benzamide] was run?
A: < 100 nM

Q: With N#Cc1ccc(N2CC(CN[C@@H]3C[C@H]3c3ccccc3)C2)c(F)c1 (relative stereo) [Example 1, 3-Fluoro-4-[3-({[trans-2-phenylcyclopropyl]amino}methyl)azetidin-1-yl]benzonitrile] as the compound, how does the IC50 read?
A: < 100 nM

Q: With CC(C)NC(=O)c1ccc(N2CC(CN[C@@H]3C[C@H]3c3ccccc3)C2)c(F)c1F (relative stereo) [Example 8, 2,3-Difluoro-N-isopropyl-4-(3-{[(trans-2-phenylcyclopropyl)amino]methyl}azetidin-1-yl)benzamide] as the compound, how does the IC50 read?
A: < 100 nM

Q: CN1CCN(c2cc(N3CC(CN[C@@H]4C[C@H]4c4ccccc4)C3)ncn2)CC1 (relative stereo) [Example 16, N-({1-[6-(4-Methylpiperazin-1-yl)pyrimidin-4-yl]azetidin-3-yl}methyl)-trans-2-phenylcyclopropanamine] was tested. Which IC50 did it give?
A: < 100 nM

Q: Which IC50 does the source give for O=C(O)c1ccc(N2CCC(CN[C@@H]3C[C@H]3c3ccccc3)(Cc3ccc(F)cc3)CC2)cn1 [Example 21, 5-[4-(4-fluorobenzyl)-4-({[(1R,2S)-2-phenylcyclopropyl]amino}methyl)piperidin-1-yl]pyridine-2-carboxylic acid] here?
A: < 100 nM

Q: With Nc1ccnc(N2CCC(N[C@H]3C[C@@H]3c3ccccc3)CC2)n1 [Example 31, 2-(4-{[(1S,2R)-2-phenylcyclopropyl]amino}piperidin-1-yl)pyrimidin-4-amine] as the compound, how does the IC50 read?
A: 100 to 500 nM

Q: How did the IC50 turn out when Nc1ccnc(N2CCC(N[C@@H]3C[C@H]3c3ccccc3)CC2)n1 [Example 30, 2-(4-{[(1R,2S)-2-phenylcyclopropyl]amino}piperidin-1-yl)pyrimidin-4-amine] was run?
A: < 100 nM

Q: Which IC50 does the source give for CC1(CN[C@@H]2C[C@H]2c2ccccc2)CCN(c2ccc(C(=O)O)nc2)CC1 [Example 25, 5-[4-methyl-4-({[(1R,2S)-2-phenylcyclopropyl]amino}methyl)piperidin-1-yl]pyridine-2-carboxylic acid] here?
A: < 100 nM

Q: Which IC50 does the source give for CC(C)NC(=O)c1cc(F)c(N2CC(CN[C@@H]3C[C@H]3c3ccccc3)C2)cc1F (relative stereo) [Example 3, 2,5-Difluoro-N-isopropyl-4-(3-{[(trans-2-phenylcyclopropyl)amino]methyl}azetidin-1-yl)benzamide] here?
A: < 100 nM

Q: For CCNC(=O)c1cnc(N2CC(CN[C@@H]3C[C@H]3c3ccccc3)C2)cn1 (relative stereo) [Example 5, N-Ethyl-5-(3-{[(trans-2-phenylcyclopropyl)amino]methyl}azetidin-1-yl)pyrazine-2-carboxamide], which IC50 is on record?
A: < 100 nM

Q: For N#CCC1(CN[C@@H]2C[C@H]2c2ccccc2)CCN(c2ncccc2C(F)(F)F)CC1 (relative stereo) [Example 19, {4-{[(trans-2-Phenylcyclopropyl)amino]methyl}-1-[3-(trifluoromethyl)pyridin-2-yl]piperidin-4-yl}acetonitrile], which IC50 is on record?
A: < 100 nM

Q: Which IC50 does the source give for CC(C)NC(=O)c1cc(F)c(N2CC(CN[C@@H]3C[C@H]3c3ccccc3)C2)cc1Cl (relative stereo) [Example 9, 2-Chloro-5-fluoro-N-isopropyl-4-(3-{[(trans-2-phenylcyclopropyl)amino]methyl}azetidin-1-yl)benzamide] here?
A: < 100 nM

Q: Which IC50 does the source give for COCC1(CN[C@@H]2C[C@H]2c2ccccc2)CCN(c2ccnc(C(=O)O)c2)CC1 [Example 23, 4-[4-(methoxymethyl)-4-({[(1R,2S)-2-phenylcyclopropyl]amino}methyl)piperidin-1-yl]pyridine-2-carboxylic acid] here?
A: < 100 nM

Q: With CC(C)NC(=O)c1c(F)cc(N2CC(CN[C@@H]3C[C@H]3c3ccccc3)C2)cc1F (relative stereo) [Example 7, 2,6-Difluoro-N-isopropyl-4-(3-{[(trans-2-phenylcyclopropyl)amino]methyl}azetidin-1-yl)benzamide] as the compound, how does the IC50 read?
A: < 100 nM

Q: For CC(C)NC(=O)c1cc(F)c(N2CC(CN[C@@H]3C[C@H]3c3ccccc3)C2)c(F)c1 (relative stereo) [Example 6, 3,5-Difluoro-N-isopropyl-4-(3-{[(trans-2-phenylcyclopropyl)amino]methyl}azetidin-1-yl)benzamide], which IC50 is on record?
A: < 100 nM

Q: For O=C(O)c1cccc(N2CCC(CN[C@@H]3C[C@H]3c3ccccc3)(Cc3ccc(F)cc3)CC2)n1 [Example 20, 6-[4-(4-fluorobenzyl)-4-({[(1R,2S)-2-phenylcyclopropyl]amino}methyl)piperidin-1-yl]pyridine-2-carboxylic acid], which IC50 is on record?
A: < 100 nM

Q: For CC1(CN[C@@H]2C[C@H]2c2ccccc2)CCN(c2ccnc(C(=O)O)c2)CC1 [Example 27, 4-[4-methyl-4-({[(1R,2S)-2-phenylcyclopropyl]amino}methyl)piperidin-1-yl]pyridine-2-carboxylic acid], which IC50 is on record?
A: < 100 nM

Q: With O=C(O)C1(c2ccc(N3CCC(CN[C@@H]4C[C@H]4c4ccccc4)(Cc4ccc(F)cc4)CC3)cc2)CC1 [Example 22, 1-{4-[4-(4-fluorobenzyl)-4-({[(1R,2S)-2-phenylcyclopropyl]amino}methyl)piperidin-1-yl]phenyl}cyclopropanecarboxylic acid] as the compound, how does the IC50 read?
A: < 100 nM

Q: Cn1cc(N2CC(CN[C@@H]3C[C@H]3c3ccccc3)C2)cn1 (relative stereo) [Example 17, trans-N-{[1-(1-Methyl-1H-pyrazol-4-yl)azetidin-3-yl]methyl}-2-phenylcyclopropanamine] was tested. Which IC50 did it give?
A: < 100 nM

Q: How did the IC50 turn out when Cc1nc(N2CC(CN[C@@H]3C[C@H]3c3ccccc3)C2)ccc1C#N (relative stereo) [Example 4, 2-Methyl-6-[3-({[trans-2-phenylcyclopropyl]amino}methyl)azetidin-1-yl]nicotinonitrile] was run?
A: < 100 nM

Q: How did the IC50 turn out when CC(C)NC(=O)c1ccc(N2CC(CN[C@@H]3C[C@H]3c3ccccc3)C2)cc1F (relative stereo) [Example 11, 2-Fluoro-N-isopropyl-4-(3-{[(trans-2-phenylcyclopropyl)amino]methyl}azetidin-1-yl)benzamide] was run?
A: < 100 nM

Q: For Cc1cc(C(=O)NC(C)C)c(F)cc1N1CC(CN[C@@H]2C[C@H]2c2ccccc2)C1 (relative stereo) [Example 12, 2-Fluoro-N-isopropyl-5-methyl-4-(3-{[(trans-2-phenylcyclopropyl)amino]methyl}azetidin-1-yl)benzamide], which IC50 is on record?
A: < 100 nM

Q: With CC(C)NC(=O)c1ccc(N2CC(CN[C@@H]3C[C@H]3c3ccccc3)C2)c(Cl)c1 (relative stereo) [Example 14, 3-Chloro-N-isopropyl-4-(3-{[(trans-2-phenylcyclopropyl)amino]methyl}azetidin-1-yl)benzamide] as the compound, how does the IC50 read?
A: < 100 nM

Q: With N#Cc1cc(F)c(N2CC(CN[C@@H]3C[C@H]3c3ccccc3)C2)c(F)c1 (relative stereo) [Example 2, 3,5-Difluoro-4-[3-({[trans-2-phenylcyclopropyl]amino}methyl)azetidin-1-yl]benzonitrile] as the compound, how does the IC50 read?
A: < 100 nM

Q: CN(C)C(=O)c1ccc(N2CCC(C)(CN[C@@H]3C[C@H]3c3ccccc3)CC2)cn1 [Example 28, N,N-dimethyl-5-[4-methyl-4-({[(1R,2S)-2-phenylcyclopropyl]amino}methyl)piperidin-1-yl]pyridine-2-carboxamide] was tested. Which IC50 did it give?
A: < 100 nM

Q: With N#CCC1(CN[C@@H]2C[C@H]2c2ccccc2)CCN(c2cccc(Cl)c2C#N)CC1 (relative stereo) [Example 18, 2-Chloro-6-(4-(cyanomethyl)-4-{[(trans-2-phenylcyclopropyl)amino]methyl}piperidin-1-yl)benzonitrile] as the compound, how does the IC50 read?
A: < 100 nM
